Data published in patent US20240025849A1 (MAX DELBRÜCK-CENTRUM FÜR MOLEKULARE MEDIZIN IN DER …, priority 2020, published 2024).
Read-outs that look alike come from different tables or passages of the source.

Tested on: primary cultured neonatal microglia
Experiment: LPS induced NO release, Griess assay, laboratory scaled setup;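 for active: compounds at or above the IC50 cutoff were called inactive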
Assay type: cell-based, mouse
Conditions: for IC50: Mus musculus, Microglia
Method: Primary cultured neonatal microglia. For preparation of cultured neonatal microglia, P0-P3 mice were used. 10 brains were extracted, meninges and cerebellum were removed and put on ice with Hank's balanced salt solution (HBSS). The dissected brains were washed 3 times before adding 400 μL trypsin (0.1 mg/L) and DNAse (5 μg/L) in phosphate buffered saline (PBS). After 2 min of incubation with this solution, the reaction was blocked by adding plain medium. After removal of the medium, 1 mg DNAse was added and the cells were mechanically dissociated, with a Pasteur pipette followed by a glass pipette. The cells were centrifuged for 10 min at 129 g at 4° C. The supernatant was discarded. The pellet was resuspended in plain medium and plated (2.5 brains/flask) in Poly-L-Lysine coated flasks. The cells were washed after 2 days with PBS and incubated for another 7 days in plain medium. Afterwards the medium was replaced by plain medium with 33% L929 conditioned medium. After 2 days, cells were harvested by shaking them for 30 min at 150 rpm. The supernatant was centrifuged for 10 min at 129 g at 4° C. The cells were plated into a 96 well plate (100 000 cells/well, 200 μL medium per well). This procedure could be repeated 2 times with a 2 day interval.
Griess assay. Cells were seeded according to the protocols described above, after compounds and stimuli were added, 100 μl of supernatant was transferred into a new 96 well plate and 100 μl freshly mixed Griess reagent were added. Griess reagent was composed of reagent A (100 mg Naphthylethylene in 50 ml aqua dest.) and reagent B (1 g Sulfanilamide, […] H3PO4 (85%) in 44 mL aqua dest.) mixed 1:1. The solution was carefully mixed and the absorbance was determined in a microplate reader at a wavelength of 550 nm.
Dissolved sodium nitrite in plain medium served as a standard. Total amount of nitrite was calculated by a linear regression of the standard curve.
The activity of the compounds listed in column 1 of Table 1 as inhibitors of NO production was compared in murine primary cultured neonatal microglia as described above.

[1] = inhibitors of NO production, murine primary cultured neonatal microglia, read-out: IC50
[2] = inhibitors of NO production, murine primary cultured neonatal microglia, read-out: activity class (IC50)
[3] = inhibitors of NO production, murine primary cultured neonatal microglia
[4] = 0.002 to 20 μM, FIG. 9, read-out: IC50, LPS induced NO production (stereoisomers)
[5] = inhibitors of NO production, murine primary cultured neonatal microglia, read-out: active

Row | SMILES | IC50 [1] | IC50 [2] | IC50 [4] | IC50 [5] | active [3] | inhibitory effect in the NO release assay (FIG. 9)
1 | COc1ccc(NC(=O)[C@@H](NC(=O)[C@@H]2CCCN2C(=O)CCC2CCOCC2)c2ccc(OC)cc2)cc1 [Compound 15, (S)—N—((S)-1-(4-methoxyphenyl)-2-((4-methoxyphenyl)amino)-2-oxoethyl)-1-(3-(tetrahydro-2H-pyran-4-yl)propanoyl)pyrrolidine-2-carboxamide] | 117 nM | < 200 nM | – | – | YES | –
2 | COc1ccc(NC(=O)[C@@H](NC(=O)[C@@H]2CCCN2C(=O)CCc2ccoc2)c2ccc(OC)cc2)cc1 [Compound 14, (S)-1-(3-(furan-3-yl)propanoyl)-N—((S)-1-(4-methoxyphenyl)-2-((4-methoxyphenyl)amino)-2-oxoethyl)pyrrolidine-2-carboxamide] | 147 nM | < 200 nM | – | – | YES | –
3 | COc1ccc(NC(=O)[C@@H](NC(=O)[C@@H]2CCCN2C(=O)CCc2ccc(F)cc2)c2ccc(OC)cc2)cc1 [Compound 9, (S)-1-(3-(4-fluorophenyl)propanoyl)-N—((S)-1-(4-methoxyphenyl)-2-((4-methoxyphenyl)amino)-2-oxoethyl)pyrrolidine-2-carboxamide] | 54.8 nM | < 100 nM | – | – | YES | –
4 | COc1ccc(NC(=O)[C@@H](NC(=O)[C@@H]2CCCN2C(=O)CCCCCNC(=O)CCCC[C@@H]2SC[C@@H]3NC(=O)N[C@@H]32)c2ccc(OC)cc2)cc1 [Compound 45] | – | – | – | ≥ 10000 nM | – | –
5 | COc1ccc(NC(=O)[C@@H](NC(=O)[C@@H]2CCCN2C(=O)CCC(C)C)c2ccc(OC)cc2)cc1 [Compound 20, (S)—N—((S)-1-(4-methoxyphenyl)-2-((4-methoxyphenyl)amino)-2-oxoethyl)-1-(4-methylpentanoyl)pyrrolidine-2-carboxamide] | 203 nM | < 1000 nM | – | – | YES | –
6 | COc1ccc(NC(=O)[C@@H](NC(=O)[C@@H]2CCCN2C(=O)OCc2ccccc2)c2ccc(OCCOCCOCCOCCOCCOCCNC(=O)CCCC[C@@H]3SC[C@@H]4NC(=O)N[C@@H]43)cc2)cc1 [Compound 29, benzyl (S)-2-(((S)-2-((4-methoxyphenyl)amino)-2-oxo-1-(4-((19-oxo-23-((3aS,4S,6aR)-2-oxohexahydro-1H-thieno[3,4-d]imidazol-4-yl)-3,6,9,12,15-pentaoxa-18-azatricosyl)oxy)phenyl)ethyl)carbamoyl)pyrrolidine-1-carboxylate] | 2360 nM | < 10000 nM | – | – | YES | –
7 | COc1ccc(NC(=O)[C@@H](NC(=O)[C@@H]2CCCN2C(C)=O)c2ccc(OC)cc2)cc1 [Compound 47] | – | – | – | ≥ 10000 nM | – | –
8 | COc1ccc(NC(=O)[C@@H](NC(=O)[C@@H]2CCCN2C(=O)CCC2CCCC2)c2ccc(OC)cc2)cc1 [Compound 5, (S)-1-(3-cyclopentylpropanoyl)-N—((S)-1-(4-methoxyphenyl)-2-((4-methoxyphenyl)amino)-2-oxoethyl)pyrrolidine-2-carboxamide] | 16.7 nM | < 50 nM | – | – | YES | –
9 | COc1ccc(NC(=O)[C@@H](NC(=O)[C@@H]2CCCN2)c2ccc(OC)cc2)cc1 [Compound 44] | – | – | – | ≥ 10000 nM | – | –
10 | COc1ccc(NC(=O)[C@@H](NC(=O)[C@@H]2CCCN2C(=O)OC(C)(C)C)c2ccc(OC)cc2)cc1 [Compound 28, tert-butyl (S)-2-(((S)-1-(4-methoxyphenyl)-2-((4-methoxyphenyl)amino)-2-oxoethyl)carbamoyl)pyrrolidine-1-carboxylate] | 3300 nM | < 10000 nM | – | – | YES | –
11 | COc1ccc([C@H](NC(=O)[C@@H]2CCCN2C(=O)OCc2ccccc2)C(=O)Nc2cnc(C3CC3)nc2)cc1 [Compound 27, benzyl(S)-2-(((S)-2-((2-cyclopropylpyrimidin-5-yl)amino)-1-(4-methoxyphenyl)-2-oxoethyl)carbamoyl)pyrrolidine-1-carboxylate] | 1910 nM | < 10000 nM | – | – | YES | –

The next lines start with results.

Row | IC50 [1] | IC50 [2] | IC50 [4] | IC50 [5] | SMILES | active [3] | inhibitory effect in the NO release assay (FIG. 9)
12 | 99.6 nM | < 100 nM | – | – | COc1ccc(NC(=O)[C@@H](NC(=O)[C@@H]2CCCN2C(=O)Cc2ccccc2)c2ccc(OC)cc2)cc1 [Compound 12, (S)—N—((S)-1-(4-methoxyphenyl)-2-((4-methoxyphenyl)amino)-2-oxoethyl)-1-(2-phenylacetyl)pyrrolidine-2-carboxamide] | YES | –
13 | 107 nM | < 200 nM | 100 nM | – | COc1ccc(NC(=O)[C@@H](NC(=O)[C@@H]2CCCN2C(=O)OCc2ccccc2)c2ccc(OC)cc2)cc1 [Compound 18, (S)-benzyl-2-((S)—(4-methoxyphenylcarbamoyl)(4-methoxyphenyl)methylcarbamoyl)pyrrolidine-1-carboxylate] | YES | shows an inhibitory effect
14 | – | – | 40000 nM | ≥ 10000 nM | COc1ccc(NC(=O)[C@H](NC(=O)[C@@H]2CCCN2C(=O)OCc2ccccc2)c2ccc(OC)cc2)cc1 [Compound 50, benzyl-(S)-2-(((R)-1-(4-methoxyphenyl)-2-((4-methoxyphenyl)amino)-2-oxoethyl)carbamoyl)-pyrrolidine-1-carboxylate] | – | not
15 | – | – | – | ≥ 10000 nM | COc1ccc([C@H](NC(=O)[C@@H]2CCCN2C(=O)OCc2ccccc2)C(=O)Nc2cccc3c2ccn3C)cc1 [Compound 41, benzyl (S)-2-(((S)-1-(4-methoxyphenyl)-2-((1-methyl-1H-indol-4-yl)amino)-2-oxoethyl)carbamoyl)pyrrolidine-1-carboxylate] | – | –
16 | – | < 200 nM | – | – | COc1ccc(NC(=O)[C@@H](NC(=O)[C@]2(C)CCCN2C(=O)OCc2ccccc2)c2ccc(OC)cc2)cc1 [Compound 33, benzyl (S)-2-(((S)-1-(4-methoxyphenyl)-2-((4-methoxyphenyl)amino)-2-oxoethyl)carbamoyl)-2-methylpyrrolidine-1-carboxylate] | YES | –
17 | – | < 1000 nM | – | – | COc1ccc(NC(=O)[C@@H](NC(=O)[C@@H]2CCN2C(=O)OCc2ccccc2)c2ccc(OC)cc2)cc1 [Compound 30, benzyl (S)-2-(((S)-1-(4-methoxyphenyl)-2-((4-methoxyphenyl)amino)-2-oxoethyl)carbamoyl)azetidine-1-carboxylate] | YES | –
18 | – | < 200 nM | – | – | COc1ccc(NC(=O)[C@@H](NC(=O)[C@@H]2CCCCN2C(=O)OCc2ccccc2)c2ccc(OC)cc2)cc1 [Compound 34, benzyl (S)-2-(((S)-1-(4-methoxyphenyl)-2-((4-methoxyphenyl)amino)-2-oxoethyl)carbamoyl)piperidine-1-carboxylate] | YES | –
19 | 259 nM | < 1000 nM | – | – | COc1ccc(NC(=O)[C@@H](NC(=O)[C@@H]2CCCN2C(=O)CCc2cn(C)c3ccccc23)c2ccc(OC)cc2)cc1 [Compound 21, (S)—N—((S)-1-(4-methoxyphenyl)-2-((4-methoxyphenyl)amino)-2-oxoethyl)-1-(3-(1-methyl-1H-indol-3-yl)propanoyl)pyrrolidine-2-carboxamide] | YES | –
20 | – | – | – | ≥ 10000 nM | COc1ccc([C@H](NC(=O)[C@@H]2CCCN2C(=O)OCc2ccccc2)C(=O)Nc2ccc3nncn3c2)cc1 [Compound 48] | – | –
21 | – | – | – | ≥ 10000 nM | COc1ccc([C@H](NC(=O)[C@@H]2CCCN2C(=O)OCc2ccccc2)C(=O)Nc2cnn(C)c2)cc1 [Compound 40, benzyl (S)-2-(((S)-1-(4-methoxyphenyl)-2-((1-methyl-1H-pyrazol-4-yl)amino)-2-oxoethyl)carbamoyl)pyrrolidine-1-carboxylate] | – | –
22 | 6880 nM | < 10000 nM | – | – | COc1ccc(NC(=O)[C@@H](NC(=O)[C@@H]2CCCN2C(=O)CCc2ccccn2)c2ccc(OC)cc2)cc1 [Compound 25, (S)—N—((S)-1-(4-methoxyphenyl)-2-((4-methoxyphenyl)amino)-2-oxoethyl)-1-(3-(pyridin-2-yl)propanoyl)pyrrolidine-2-carboxamide] | YES | –
23 | – | – | – | ≥ 10000 nM | COc1ccc(NC(=O)[C@@H](NC(=O)[C@@H]2CCCN2CCCc2ccccc2)c2ccc(OC)cc2)cc1 [Compound 39, (S)—N—((S)-1-(4-methoxyphenyl)-2-((4-methoxyphenyl)amino)-2-oxoethyl)-1-(3-phenylpropyl)pyrrolidine-2-carboxamide] | – | –
24 | 231 nM | < 1000 nM | – | – | COc1ccc([C@H](NC(=O)[C@@H]2CCCN2C(=O)OCc2ccccc2)C(=O)Nc2ccc3c(c2)CCO3)cc1 [Compound 22, benzyl-(S)-2-(((S)-2-((2,3-dihydrobenzofuran-5-yl)amino)-1-(4-methoxyphenyl)-2-oxoethyl)carbamoyl)pyrrolidine-1-carboxylate] | YES | –
